Data from PubChem BioAssay (NCI).
Values joined by “and” are separate entries in the source; they are usually repeats but may differ in a detail not shown here. Equal entries are not always repeated.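 Values below derive from 48-hour exposures of cells grown in 96-well plates, with endpoints linearly interpolated between the two concentrations bracketing the appropriate inhibition level. GI50 = concentration required for 50% inhibition of growth. At the TGI there is no net growth.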

Test system: KM20L2 colon
Assay: DTP human tumour cell line panel, 48 h

Structure (SMILES) | GI50 [µM] | TGI [µM]
C1COCCN1.C1COCCN1.NC1CCCCC1N.[Cl-].[Pt+2] (stereo not drawn) | > 100 | > 100
COC1OC(CBr)C(OC(=O)c2ccccc2)C(O)C1Br (stereo not drawn) | – | > 100
C[C@]12CCC(=O)C=C1CC[C@@H]1C2CC[C@]2(C)Nc3c(cnn3-c3ccccc3)CC12 (stereo partly drawn) | – | > 100
O=C(NC(=O)c1cn(CCN(CCO)C(=O)NCCCCCCNC(=O)N(CCO)CCn2cc(C(=O)NC(=O)OCc3ccccc3)c(=O)[nH]c2=O)c(=O)[nH]c1=O)OCc1ccccc1 | – | > 100
Cc1cc2c(C)nn(Cc3ccccc3)c2c(C(N)=O)c1C | – | > 100
C=CCNC(=O)N(CCCC(NC(C)=O)C(=O)NCc1ccccc1)Cc1ccccc1 (stereo not drawn) | – | > 100
c1ccc(C(c2ccccc2)c2cccnc2)cc1 | – | > 100
C1=CC=C2NCCCCCCCNC3=CC=CC=CC3=NCCCCCCCN=C2C=C1 | – | > 100
COC(=O)/C(=N\NC(=O)C[N+](C)(C)C)C(C(=O)OC)C(=O)C(=O)Nc1ccccc1C(N)=O (stereo not drawn) | – | > 100
CC1CN(c2ccc(Cl)cc2)CC(C)OC(=O)O1 (stereo not drawn) | – | > 100
COCC(O)Cn1ccnc1[N+](=O)[O-] (stereo not drawn) | – | > 100
OCC1C(/C=C/c2ccoc2)ON2CCCC12 (stereo not drawn) | – | > 100
Cc1ccc([N+](=O)[O-])cc1NC(=O)/C(=N/NC(=S)NN)C1SC(=S)NC1=O (stereo not drawn) | – | > 100

Test system: MOLT-4 leukemia
Assay: DTP human tumour cell line panel, 48 h

Structure (SMILES) | GI50 | TGI
N.N.N.N.N.[Cl-].[Co+3].c1ccc(-c2nn[n-]n2)cc1 | > 100 µM | > 100 µM
COc1cccc2c1C(=O)c1c(O)c3c(c(O)c1C2=O)CC(O)(C(O)CO)CC3OC1CC(N2CCOCC2)C(O)C(C)O1 (stereo not drawn) | 0.0097 µM and 0.0243 µM | 0.205 µM and 0.185 µM
C1COCCN1.C1COCCN1.NC1CCCCC1N.[Cl-].[Pt+2] (stereo not drawn) | > 100 µM | > 100 µM
COC1OC(CBr)C(OC(=O)c2ccccc2)C(O)C1Br (stereo not drawn) | – | > 100 µM
C[C@]12CCC(=O)C=C1CC[C@@H]1C2CC[C@]2(C)Nc3c(cnn3-c3ccccc3)CC12 (stereo partly drawn) | – | > 100 µM
O=C(NC(=O)c1cn(CCN(CCO)C(=O)NCCCCCCNC(=O)N(CCO)CCn2cc(C(=O)NC(=O)OCc3ccccc3)c(=O)[nH]c2=O)c(=O)[nH]c1=O)OCc1ccccc1 | – | > 100 µM
CCOC1=C2C(=O)OC(=O)C2C2CCCCC2=C1 (stereo not drawn) | – | > 100 µM
Cc1cc2c(C)nn(Cc3ccccc3)c2c(C(N)=O)c1C | – | > 100 µM
C=CCNC(=O)N(CCCC(NC(C)=O)C(=O)NCc1ccccc1)Cc1ccccc1 (stereo not drawn) | – | > 100 µM
C1=CC=C2NCCCCCCCNC3=CC=CC=CC3=NCCCCCCCN=C2C=C1 | – | > 100 µM
COC(=O)/C(=N\NC(=O)C[N+](C)(C)C)C(C(=O)OC)C(=O)C(=O)Nc1ccccc1C(N)=O (stereo not drawn) | – | > 100 µM
COCC(O)Cn1ccnc1[N+](=O)[O-] (stereo not drawn) | – | > 100 µM
O=c1ccn(C2CC(O)C(CO)O2)c(=O)[nH]1 (stereo not drawn) | 548 µM and 227 µM | > 5000 µM
O=C(N/C(=C/c1ccc(Cl)cc1Cl)c1nc2ccccc2s1)c1ccccc1 | – | > 100 µM
COc1c(O)cc2oc(-c3ccc(O)cc3)cc(=O)c2c1O | – | 83.2 µM
COc1cccc(-c2nn(-c3ccccc3)cc2-c2ccnc(NCCCNC(=O)Nc3ccc(Cl)c(Cl)c3)c2)c1 | 1.95 µM | 5.85 µM
COc1cc2ccccc2oc1=O | – | > 100 µM

Structure (SMILES) | GI50 | TGI
Nc1nc(N)c2nc(CNc3ccc(C(=O)NC(CC(=O)O)C(=O)O)cc3)cnc2n1 (stereo not drawn) | 0.903 µM | > 100 µM
O=C1c2cccc(NCCN=Cc3cc([N+](=O)[O-])ccc3O)c2C(=O)c2c(NCCN=Cc3cc([N+](=O)[O-])ccc3O)cccc21 | 0.648 µM | 16.7 µM
CC(=O)OC[C@]12CC[C@@H](C(=O)CBr)[C@@H]1[C@H]1CC[C@@H]3[C@@]4(C)CCCNC(C)(C)[C@@H]4CC[C@@]3(C)[C@]1(C)CC2 | 2.03 µM | 5.43 µM
COc1cc2c3c(n(CCCCN)c(=O)c2cc1OC)-c1cc2c(cc1C3=O)OCO2 | 0.114 µM | 2.95 µM
Cc1cc(NCCCCCCNc2cc(C)nc3cc(N(C)C)ccc23)c2ccc(N(C)C)cc2n1 | – | > 100 µM
N#CCCN(CCCN(CCCN(C(=O)Nc1ccccc1)c1ccccc1)C(=O)Nc1ccccc1)C(=O)Nc1ccccc1 | 3.95 µM | > 100 µM
C=CCC1(O)c2ccccc2C(=O)c2c(NCCN(CC(=O)OCC)CC(=O)OCC)cccc21 (stereo not drawn) | 75.6 µM | > 100 µM
Cc1ccc([N+](=O)[O-])cc1NC(=O)/C(=N/NC(=S)NN)C1SC(=S)NC1=O (stereo not drawn) | – | > 100 µM
COc1cccc(-n2nc(C)c3c(N/N=C(\C)c4ccncc4)ncnc32)c1 | > 25 µM | > 25 µM
Cc1ccc(-c2nc(C#N)c(S(=O)(=O)n3nc(C)cc3N)o2)cc1 | 1.97 µM | 4.77 µM
COc1cccc2c1ccc1nc3cccc(C(=O)N[C@H](C)CN(C)C)c3nc12 | 0.0454 µM | 4.85 µM
NC(=O)c1ccc(I)c(N=O)c1 | 36.5 µM | > 100 µM
COc1ccc2c(=O)cc(-c3ccncc3)oc2c1OC | – | 41.7 µM
O=C(O)c1cc2ccc3ccccc3c2oc1=O | – | > 100 µM
O=[N+]([O-])c1ccc2c(c1)Cc1cc(N=Cc3ccc4c(c3)OCO4)ccc1-2 | – | > 100 µM
COC(=O)[C@@]12OC[C@]34[C@H]([C@@H](O)[C@@H]1O)[C@@]1(C)[C@H](O)C(=O)C=C(C)[C@@H]1C[C@H]3OC(=O)C(OC(C)=O)[C@@H]24 (stereo partly drawn) | < 0.0145 µM | 0.0487 µM

Test system: 786-0 renal
Assay: DTP human tumour cell line panel, 48 h

Structure (SMILES) | GI50 [µM] | TGI
N.N.N.N.N.[Cl-].[Co+3].c1ccc(-c2nn[n-]n2)cc1 | > 100 | > 100 µM
COc1cccc2c1C(=O)c1c(O)c3c(c(O)c1C2=O)CC(O)(C(O)CO)CC3OC1CC(N2CCOCC2)C(O)C(C)O1 (stereo not drawn) | < 0.001 | 0.148 µM and 0.0989 µM
C1COCCN1.C1COCCN1.NC1CCCCC1N.[Cl-].[Pt+2] (stereo not drawn) | > 100 | > 100 µM
COC1OC(CBr)C(OC(=O)c2ccccc2)C(O)C1Br (stereo not drawn) | – | > 100 µM
C[C@]12CCC(=O)C=C1CC[C@@H]1C2CC[C@]2(C)Nc3c(cnn3-c3ccccc3)CC12 (stereo partly drawn) | – | > 100 µM
O=C(NC(=O)c1cn(CCN(CCO)C(=O)NCCCCCCNC(=O)N(CCO)CCn2cc(C(=O)NC(=O)OCc3ccccc3)c(=O)[nH]c2=O)c(=O)[nH]c1=O)OCc1ccccc1 | – | > 100 µM
CCOC1=C2C(=O)OC(=O)C2C2CCCCC2=C1 (stereo not drawn) | – | > 100 µM
Cc1cc2c(C)nn(Cc3ccccc3)c2c(C(N)=O)c1C | – | > 100 µM
C=CCNC(=O)N(CCCC(NC(C)=O)C(=O)NCc1ccccc1)Cc1ccccc1 (stereo not drawn) | – | > 100 µM
c1ccc(C(c2ccccc2)c2cccnc2)cc1 | – | > 100 µM
C1=CC=C2NCCCCCCCNC3=CC=CC=CC3=NCCCCCCCN=C2C=C1 | – | > 100 µM
COC(=O)/C(=N\NC(=O)C[N+](C)(C)C)C(C(=O)OC)C(=O)C(=O)Nc1ccccc1C(N)=O (stereo not drawn) | – | > 100 µM
CC1CN(c2ccc(Cl)cc2)CC(C)OC(=O)O1 (stereo not drawn) | – | > 100 µM
COCC(O)Cn1ccnc1[N+](=O)[O-] (stereo not drawn) | – | > 100 µM
O=c1ccn(C2CC(O)C(CO)O2)c(=O)[nH]1 (stereo not drawn) | > 5000 | > 5000 µM
OCC1C(/C=C/c2ccoc2)ON2CCCC12 (stereo not drawn) | – | > 100 µM

Structure (SMILES) | GI50 [µM] | TGI
O=C(N/C(=C/c1ccc(Cl)cc1Cl)c1nc2ccccc2s1)c1ccccc1 | – | 35.4 µM
COc1c(O)cc2oc(-c3ccc(O)cc3)cc(=O)c2c1O | – | > 100 µM
COc1cccc(-c2nn(-c3ccccc3)cc2-c2ccnc(NCCCNC(=O)Nc3ccc(Cl)c(Cl)c3)c2)c1 | 1.82 | 3.97 µM
COc1cc2ccccc2oc1=O | – | > 100 µM
Nc1nc(N)c2nc(CNc3ccc(C(=O)NC(CC(=O)O)C(=O)O)cc3)cnc2n1 (stereo not drawn) | 0.372 | > 100 µM
O=C1c2cccc(NCCN=Cc3cc([N+](=O)[O-])ccc3O)c2C(=O)c2c(NCCN=Cc3cc([N+](=O)[O-])ccc3O)cccc21 | 7.04 | > 100 µM
CC(=O)OC[C@]12CC[C@@H](C(=O)CBr)[C@@H]1[C@H]1CC[C@@H]3[C@@]4(C)CCCNC(C)(C)[C@@H]4CC[C@@]3(C)[C@]1(C)CC2 | 1.65 | 3.27 µM
COc1cc2c3c(n(CCCCN)c(=O)c2cc1OC)-c1cc2c(cc1C3=O)OCO2 | 0.172 | 0.889 µM
Cc1cc(NCCCCCCNc2cc(C)nc3cc(N(C)C)ccc23)c2ccc(N(C)C)cc2n1 | – | > 100 µM
N#CCCN(CCCN(CCCN(C(=O)Nc1ccccc1)c1ccccc1)C(=O)Nc1ccccc1)C(=O)Nc1ccccc1 | > 100 | > 100 µM
C=CCC1(O)c2ccccc2C(=O)c2c(NCCN(CC(=O)OCC)CC(=O)OCC)cccc21 (stereo not drawn) | > 100 | > 100 µM
Cc1ccc([N+](=O)[O-])cc1NC(=O)/C(=N/NC(=S)NN)C1SC(=S)NC1=O (stereo not drawn) | – | > 100 µM
COc1cccc(-n2nc(C)c3c(N/N=C(\C)c4ccncc4)ncnc32)c1 | > 25 | > 25 µM
Cc1ccc(-c2nc(C#N)c(S(=O)(=O)n3nc(C)cc3N)o2)cc1 | 2.35 | 6.35 µM
COc1cccc2c1ccc1nc3cccc(C(=O)N[C@H](C)CN(C)C)c3nc12 | 0.0887 | 2.44 µM
